Test results as given in patent US12660819B2, “Herbicidal derivatives” (SYNGENTA CROP PROTECTION AG, priority 2020, dated 2026).

How the values were obtained:
Type in all cases: in vivo
[1] = tested on: Ipomoea hederacea (IPOHE); test: Post-emergence Test (glasshouse, percentage damage to the plant); conditions: post-emergence spray, 1000 g/ha unless otherwise stated, evaluated after 13 days
In short: (§1)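 Seeds sown in standard soil in a glasshouse (24/16 °C day/night, 14 h light, 65% humidity), then sprayed with an aqueous solution of the compound formulated in acetone/water 50:50 with 0.5% Tween 20 at 1000 g/ha unless otherwise stated. Percentage damage was scored after 13 days on a five-point scale (5=81-100%; 1=0-20%).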

Setaria faberi (SETFA) [2] = test: as above; conditions: post-emergence spray, 1000 g/ha unless otherwise stated, evaluated after 13 days
In short: as §1

Solanum nigrum (SOLNI) [3] = test: as above; conditions: post-emergence spray, 1000 g/ha unless otherwise stated, evaluated after 13 days
In short: (§2)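 Rate 1000 g/ha unless stated otherwise. Vehicle: acetone/water 50:50 with 0.5% Tween 20, diluted into aqueous spray. Timing: spray after sowing, read 13 days later. Score: 5=81-100%, 4=61-80%, 3=41-60%, 2=21-40%, 1=0-20% damage.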

Lolium perenne (LOLPE) [4] = test: as above; conditions: post-emergence spray, 1000 g/ha unless otherwise stated, evaluated after 13 days
In short: as §2

[5] = tested on: Amaranthus retoflexus (AMARE); test: as above; conditions: post-emergence spray, 1000 g/ha unless otherwise stated, evaluated after 13 days
In short: as §2

[6] = tested on: Echinochloa crus-galli (ECHCG); test: as above; conditions: post-emergence spray, 1000 g/ha unless otherwise stated, evaluated after 13 days
In short: as §2

Solanum nigrum (SOLNI) [7] = test: Pre-emergence Test (glasshouse, percentage damage to the plant); conditions: 1000 g/ha unless otherwise stated, five-point scale
Setaria faberi (SETFA) [8] = test: as above; conditions: 1000 g/ha unless otherwise stated, five-point scale
Lolium perenne (LOLPE) [9] = test: as above; conditions: 1000 g/ha unless otherwise stated, five-point scale
[10] = tested on: Amaranthus retoflexus (AMARE); test: as above; conditions: 1000 g/ha unless otherwise stated, five-point scale
[11] = tested on: Ipomoea hederacea (IPOHE); test: as above; conditions: 1000 g/ha unless otherwise stated, five-point scale
[12] = tested on: Echinochloa crus-galli (ECHCG); test: as above; conditions: 1000 g/ha unless otherwise stated, five-point scale

Compound | Post-emergence Test IPOHE, percentage damage to the plant (five-point scale) [1] | Post-emergence Test SETFA, percentage damage to the plant (five-point scale) (Setaria faberi (SETFA) [2]) | Post-emergence Test SOLNI, percentage damage to the plant (five-point scale) (Solanum nigrum (SOLNI) [3]) | Post-emergence Test LOLPE, percentage damage to the plant (five-point scale) (Lolium perenne (LOLPE) [4]) | Post-emergence Test AMARE, percentage damage to the plant (five-point scale) [5] | Post-emergence Test ECHCG, percentage damage to the plant (five-point scale) [6] | percentage damage to the plant, SOLNI (Solanum nigrum (SOLNI) [7]) | percentage damage to the plant, SETFA (Setaria faberi (SETFA) [8]) | percentage damage to the plant, LOLPE (Lolium perenne (LOLPE) [9]) | percentage damage to the plant, AMARE [10] | percentage damage to the plant, IPOHE [11] | percentage damage to the plant, ECHCG [12]
Cc1c(-c2ccc(Cl)cc2)c(=O)c(C(=O)O)c(-c2ccc(Cl)c(Cl)c2)n1C [Compound 5, 5-(4-chlorophenyl)-2-(3,4-dichlorophenyl)-1,6-dimethyl-4-oxo-pyridine-3-carboxylic acid] | 3 (3=41-60%) | 5 (5=81-100%) | 2 (2=21-40%) | 1 (1=0-20%) | 3 (3=41-60%) | 5 (5=81-100%) | 4 (4=61-80%) | 4 (4=61-80%) | 4 (4=61-80%) | 4 (4=61-80%) | 4 (4=61-80%) | 4 (4=61-80%)
CCn1c(C)c(-c2cccnc2F)c(=O)c(C(=O)O)c1-c1ccc(Cl)c(Cl)c1 [Compound 6, 2-(3,4-dichlorophenyl)-1-ethyl-5-(2-fluoro-3-pyridyl)-6-methyl-4-oxo-pyridine-3-carboxylic acid] | 1 (1=0-20%) | 4 (4=61-80%) | 3 (3=41-60%) | 4 (4=61-80%) | 4 (4=61-80%) | 4 (4=61-80%) | 3 (3=41-60%) | 5 (5=81-100%) | 4 (4=61-80%) | 4 (4=61-80%) | 1 (1=0-20%) | 4 (4=61-80%)
CCn1c(C)c(-c2ccc(F)nc2)c(=O)c(C(=O)O)c1-c1ccc(Cl)c(Cl)c1 [Compound 8, 2-(3,4-dichlorophenyl)-1-ethyl-5-(6-fluoro-3-pyridyl)-6-methyl-4-oxo-pyridine-3-carboxylic acid] | 4 (4=61-80%) | 5 (5=81-100%) | 5 (5=81-100%) | 3 (3=41-60%) | 5 (5=81-100%) | 4 (4=61-80%) | 3 (3=41-60%) | 4 (4=61-80%) | 3 (3=41-60%) | 3 (3=41-60%) | 1 (1=0-20%) | 2 (2=21-40%)
CCn1c(C)c(-c2ccc(Cl)c(F)c2)c(=O)c(C(=O)O)c1-c1ccc(Cl)c(Cl)c1 [Compound 9, 5-(4-chloro-3-fluoro-phenyl)-2-(3,4-dichlorophenyl)-1-ethyl-6-methyl-4-oxo-pyridine-3-carboxylic acid] | 3 (3=41-60%) | 5 (5=81-100%) | 3 (3=41-60%) | 1 (1=0-20%) | 5 (5=81-100%) | 5 (5=81-100%) | 3 (3=41-60%) | 4 (4=61-80%) | 1 (1=0-20%) | 5 (5=81-100%) | 1 (1=0-20%) | 5 (5=81-100%)
CCn1c(C)c(-c2ccc(Cl)cc2)c(=O)c(C(=O)O)c1-c1ccc(Cl)c(Cl)c1 [Compound 10, 5-(4-chlorophenyl)-2-(3,4-dichlorophenyl)-1-ethyl-6-methyl-4-oxo-pyridine-3-carboxylic acid] | 4 (4=61-80%) | 5 (5=81-100%) | 5 (5=81-100%) | 3 (3=41-60%) | 5 (5=81-100%) | 4 (4=61-80%) | 4 (4=61-80%) | 4 (4=61-80%) | 1 (1=0-20%) | 5 (5=81-100%) | 2 (2=21-40%) | 3 (3=41-60%)
CCn1c(C)c(-c2ccc(F)cc2)c(=O)c(C(=O)O)c1-c1ccc(Cl)c(Cl)c1 [Compound 11, 2-(3,4-dichlorophenyl)-1-ethyl-5-(4-fluorophenyl)-6-methyl-4-oxo-pyridine-3-carboxylic acid] | 4 (4=61-80%) | 4 (4=61-80%) | 5 (5=81-100%) | 2 (2=21-40%) | 4 (4=61-80%) | 4 (4=61-80%) | 5 (5=81-100%) | 5 (5=81-100%) | 1 (1=0-20%) | 5 (5=81-100%) | 2 (2=21-40%) | 5 (5=81-100%)
CCn1c(C)c(-c2ccccc2Cl)c(=O)c(C(=O)O)c1-c1ccc(Cl)c(Cl)c1 [Compound 13, 5-(2-chlorophenyl)-2-(3,4-dichlorophenyl)-1-ethyl-6-methyl-4-oxo-pyridine-3-carboxylic acid] | 4 (4=61-80%) | 4 (4=61-80%) | 3 (3=41-60%) | 4 (4=61-80%) | 4 (4=61-80%) | 4 (4=61-80%) | 4 (4=61-80%) | 5 (5=81-100%) | 2 (2=21-40%) | 4 (4=61-80%) | 4 (4=61-80%) | 5 (5=81-100%)
CCn1c(C)c(-c2ccccc2F)c(=O)c(C(=O)O)c1-c1ccc(Cl)c(Cl)c1 [Compound 14, 2-(3,4-dichlorophenyl)-1-ethyl-5-(2-fluorophenyl)-6-methyl-4-oxo-pyridine-3-carboxylic acid] | 4 (4=61-80%) | 4 (4=61-80%) | 3 (3=41-60%) | 4 (4=61-80%) | 4 (4=61-80%) | 4 (4=61-80%) | 2 (2=21-40%) | 5 (5=81-100%) | 1 (1=0-20%) | 2 (2=21-40%) | 3 (3=41-60%) | 4 (4=61-80%)
CCn1c(C)c(-c2ccc(Cl)cc2Cl)c(=O)c(C(=O)O)c1-c1ccc(Cl)c(Cl)c1 [Compound 15, 5-(2,4-dichlorophenyl)-2-(3,4-dichlorophenyl)-1-ethyl-6-methyl-4-oxo-pyridine-3-carboxylic acid] | 2 (2=21-40%) | 5 (5=81-100%) | 4 (4=61-80%) | 1 (1=0-20%) | 5 (5=81-100%) | 4 (4=61-80%) | 3 (3=41-60%) | 5 (5=81-100%) | 1 (1=0-20%) | 5 (5=81-100%) | 1 (1=0-20%) | 1 (1=0-20%)
